Species on record: Rattus norvegicus
Assay: Open TG-GATES - Regimen: Single
Type: toxicity, organism-based, Sprague-Dawley
Set-up: regimen Single, gender Male, age 6 weeks
Conditions: in vivo, po, route gavage; for gamma-GTP / ALP / AST / BUN / CRE / Ca / DBIL / GLC / IP / K / LDH / Na / PL / RALB / TBIL / TC / TG / TP / ALT: tissue Plasma; for APTT / Bas / Eos / Fbg / Hb / Ht / MCH / MCHC / MCV / Mono / Neu / PT / Plat / RBC / Ret / WBC / Lym: tissue Blood; for KIDNEY_L / KIDNEY_R / KIDNEY_TOTAL: tissue Kidney; for LIVER: tissue Liver
[1] = 300 mg/kg, 3 h, dose level Middle
[2] = 300 mg/kg, 6 h, dose level Middle
[3] = 300 mg/kg, 9 h, dose level Middle
[4] = 300 mg/kg, 24 h, dose level Middle

`O=C(O)c1cn(C2CC2)c2cc(N3CCNCC3)c(F)cc2c1=O` [CIPROFLOXACIN] gave a gamma-GTP (100 mg/kg, 24 h, dose level Low) of 1.4 IU/L, a TERMINAL_BW [1] of 184.9 g and an APTT [1] of 16.7 s. The Bas [1] was 0%, the Eos [1] was 0.4% and the Fbg [1] was 204.6 mg/dL. For the same compound, the Hb [1] was 13.2 g/dL, the Ht [1] was 39.5% and the MCH [1] was 22.8 pg. The MCHC [1] was 33.4%, the MCV [1] was 68.2 fL and the Mono [1] was 6%. It also gave a Neu [1] of 14.2%, a PT [1] of 12.4 s and a Plat [1] of 99.2 x10_4/uL. It also gave an RBC [1] of 579 x10_4/ul, a Ret [1] of 11.6% and a WBC [1] of 102.6 x10_2/uL. For the same compound, the KIDNEY_L [1] was 0.8 g, the KIDNEY_R [1] was 0.9 g and the KIDNEY_TOTAL [1] was 1.7 g. For the same compound, the LIVER [1] was 9 g, the ALP [1] was 905.6 IU/L and the AST [1] was 68.2 IU/L. The BUN [1] was 11.6 mg/dL, the CRE [1] was 0.5 mg/dL and the Ca [1] was 11 mg/dL. For the same compound, the DBIL [1] was 0.006 mg/dL, the GLC [1] was 183.6 mg/dL and the IP [1] was 9.9 mg/dL. It also gave a K [1] of 4.7 meq/L, an LDH [1] of 78.6 IU/L and a Na [1] of 138.8 meq/L. For the same compound, the PL [1] was 145.6 mg/dL, the RALB [1] was 3.9 g/dL and the TBIL [1] was 0.4 mg/dL. The TC [1] was 84 mg/dL, the TG [1] was 43.6 mg/dL and the TP [1] was 5.5 g/dL. The gamma-GTP [1] was 1 IU/L, the TERMINAL_BW [2] was 179.8 g and the Bas [2] was 0%. For the same compound, the Eos [2] was 1%, the Fbg [2] was 208.2 mg/dL and the Hb [2] was 12.8 g/dL. For the same compound, the MCH [2] was 22.1 pg, the MCHC [2] was 33% and the MCV [2] was 67.1 fL. It also gave a Mono [2] of 8%, a PT [2] of 12.4 s and a Plat [2] of 101.5 x10_4/uL. It also gave an RBC [2] of 579.8 x10_4/ul, a Ret [2] of 10.5% and a WBC [2] of 103.6 x10_2/uL. For the same compound, the KIDNEY_L [2] was 0.9 g, the KIDNEY_R [2] was 0.8 g and the KIDNEY_TOTAL [2] was 1.7 g. The LIVER [2] was 8.1 g, the ALP [2] was 804.2 IU/L and the ALT [2] was 35.2 IU/L. For the same compound, the BUN [2] was 11 mg/dL, the CRE [2] was 0.5 mg/dL and the Ca [2] was 11.6 mg/dL. It also gave a DBIL [2] of 0.038 mg/dL, a GLC [2] of 175.2 mg/dL and an IP [2] of 10.3 mg/dL. For the same compound, the K [2] was 5.1 meq/L, the LDH [2] was 82.2 IU/L and the Na [2] was 138 meq/L. For the same compound, the PL [2] was 131.8 mg/dL, the RALB [2] was 3.8 g/dL and the TBIL [2] was 0.4 mg/dL. It also gave a TC [2] of 82.2 mg/dL, a TG [2] of 36.2 mg/dL and a TP [2] of 5.6 g/dL. The gamma-GTP [2] was 1.4 IU/L, the TERMINAL_BW [3] was 176.2 g and the APTT [3] was 16.9 s. It also gave a Bas [3] of 0%, an Eos [3] of 0.8% and a Fbg [3] of 220.4 mg/dL. For the same compound, the Hb [3] was 13.2 g/dL, the Ht [3] was 39.7% and the Lym [3] was 81%. It also gave an MCV [3] of 67.5 fL, a Mono [3] of 5.2% and a Neu [3] of 13.4%. The PT [3] was 11.5 s, the Plat [3] was 101.9 x10_4/uL and the RBC [3] was 588.6 x10_4/ul. The Ret [3] was 9.9%, the WBC [3] was 105.6 x10_2/uL and the KIDNEY_L [3] was 0.8 g. The KIDNEY_R [3] was 0.8 g, the KIDNEY_TOTAL [3] was 1.7 g and the LIVER [3] was 7.2 g. It also gave an ALP [3] of 927.2 IU/L, an ALT [3] of 33 IU/L and an AST [3] of 67.4 IU/L. The BUN [3] was 10.2 mg/dL, the CRE [3] was 0.5 mg/dL and the DBIL [3] was 0.082 mg/dL. It also gave a GLC [3] of 191.4 mg/dL, an IP [3] of 10.9 mg/dL and a K [3] of 5 meq/L. For the same compound, the LDH [3] was 79.8 IU/L, the Na [3] was 139.2 meq/L and the PL [3] was 120.4 mg/dL. The RALB [3] was 3.9 g/dL, the TBIL [3] was 0.3 mg/dL and the TC [3] was 72.8 mg/dL. The TP [3] was 5.6 g/dL, the gamma-GTP [3] was 1.4 IU/L and the TERMINAL_BW [4] was 194.3 g. It also gave a Bas [4] of 0%, an Eos [4] of 1% and a Fbg [4] of 214.4 mg/dL. The Hb [4] was 12.9 g/dL, the Lym [4] was 77.2% and the MCH [4] was 21.4 pg. The MCHC [4] was 33.1%, the MCV [4] was 64.8 fL and the Mono [4] was 7%. The PT [4] was 12.4 s, the Plat [4] was 106.2 x10_4/uL and the RBC [4] was 600.4 x10_4/ul. The Ret [4] was 9.4%, the WBC [4] was 96.1 x10_2/uL and the KIDNEY_L [4] was 0.9 g. For the same compound, the KIDNEY_R [4] was 0.9 g, the KIDNEY_TOTAL [4] was 1.8 g and the LIVER [4] was 8.5 g. It also gave an ALP [4] of 843 IU/L, an ALT [4] of 37.8 IU/L and an AST [4] of 71.8 IU/L. It also gave a BUN [4] of 17.6 mg/dL, a CRE [4] of 0.5 mg/dL and a Ca [4] of 11.3 mg/dL. The DBIL [4] was 0.058 mg/dL, the GLC [4] was 193 mg/dL and the IP [4] was 9.2 mg/dL. It also gave a K [4] of 4.7 meq/L, an LDH [4] of 93.4 IU/L and a Na [4] of 140.2 meq/L. For the same compound, the PL [4] was 153.2 mg/dL, the RALB [4] was 3.9 g/dL and the TBIL [4] was 0.3 mg/dL. It also gave a TC [4] of 95.4 mg/dL, a TG [4] of 49 mg/dL and a TP [4] of 5.9 g/dL. It also gave a gamma-GTP [4] of 1.8 IU/L.

From ChEMBL document CHEMBL3885861, “Open TG-GATES”
